For nine molecules, Ki results are on record in US20100286145A1, “ISOPHTHALAMIDE DERIVATIVES INHIBITING BETA-SECRETASE ACTIVITY” (CoMentis, Inc., priority 2007, published 2010).

memapsin 2, sequence (P56817 46-501): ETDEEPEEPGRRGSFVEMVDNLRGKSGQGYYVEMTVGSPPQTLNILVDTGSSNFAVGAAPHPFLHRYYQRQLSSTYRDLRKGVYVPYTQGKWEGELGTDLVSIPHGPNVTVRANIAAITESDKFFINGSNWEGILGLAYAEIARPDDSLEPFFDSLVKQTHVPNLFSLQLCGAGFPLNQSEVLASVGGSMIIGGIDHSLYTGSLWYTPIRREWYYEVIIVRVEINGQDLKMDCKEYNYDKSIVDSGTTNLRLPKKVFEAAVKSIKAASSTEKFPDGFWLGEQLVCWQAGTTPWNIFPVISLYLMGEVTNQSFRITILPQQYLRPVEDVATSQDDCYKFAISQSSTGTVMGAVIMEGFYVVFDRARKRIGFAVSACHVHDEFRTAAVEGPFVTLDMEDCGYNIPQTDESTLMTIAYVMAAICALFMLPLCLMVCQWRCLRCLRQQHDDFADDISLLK

This test has as its target memapsin 2 (Homo sapiens, UniProt P56817). Nature of the test: Inhibition of memapsin 2 beta-secretase activity (fluorogenic substrate FS-2). The class given is biochemical. Particulars: memapsin 2, pH 4, 37° C., fluorogenic substrate FS-2; read-out: M2Ki. How it is done: Potency of compounds were determined by measurement of their inhibition of memapsin 2 activity toward a fluorescent substrate. Kinetic inhibition experiments were performed using the procedure as described in Ermolieff, et al. (Biochemistry 39:12450-12456 (2000), the teachings of which are incorporated hereby in their entirety). Briefly, assays were performed at pH 4, 37° C., by pre-incubation of memapsin 2 enzyme with compound for 20 minutes. Activity measurements were initiated by addition of a fluorogenic substrate FS-2 (Bachem Americas, Torrance, Calif.) MCA-SEVNLDAEFR-DNP (SEQ ID NO.: 2). The substrate was derived from 10 amino acids of the human amyloid precursor protein (APP), with the Swedish variant amino acids at the beta-secretase cleavage site. The terminal amino acid was modified from arginine to lysine to facilitate derivatization with a functional group for detection by autofluorescence. The amino acid sequence of the “core” peptide of the substrate is SEVNLDAEFK (SEQ ID NO.: 3). The amino terminus was derivatized with (7-methoxycoumarin-4-yl)acetyl (MCA), and the epsilon amine of the lysine side chain of the terminal residue (K in sequence SEVNLDAEFK (SEQ ID NO.: 3)) was derivatized with 2,4-dinitorphenyl (DNP).
Fluorescent signal increase over time was measured as a rate of hydrolysis of the peptide substrate. Inhibition of hydrolytic rate was expressed relative to uninhibited controls and fit to a model for tight-binding inhibitors (J. Bieth, in “Proteinase Inhibitors,” Bayer Symposium V, 463-469, 1974, which is herein incorporated by reference for all purposes in its entirety).
As for `Cc1csc(CN(C)C(=O)c2cc(C(=O)N[C@@H](Cc3ccccc3)[C@H](O)CNCc3cccc(C(F)(F)F)c3)cc(-c3cnco3)c2)n1` [Compound 219, N1-((2S,3R)-3-hydroxy-1-phenyl-4-(3-(trifluoromethyl)benzylamino)butan-2-yl)-N3-methyl-N3-((4-methylthiazol-2-yl)methyl)-5-(oxazol-5-yl)isophthalamide], the Ki was under 300 nM.
For `Cc1csc(CN(C)C(=O)c2cccc(C(=O)N[C@@H](Cc3ccccc3)[C@H](O)CNCc3cc(-c4ccncc4)cc(C(F)(F)F)c3)c2)n1` [Compound 275, N1-((2S,3R)-3-hydroxy-1-phenyl-4-(3-(pyridin-4-yl)-5-(trifluoromethyl)benzylamino)butan-2-yl)-N3-methyl-N3-((4-methylthiazol-2-yl)methyl)isophthalamide], the Ki was under 300 nM.
Consider `CN(Cc1nc(CF)cs1)C(=O)c1cccc(C(=O)N[C@@H](Cc2ccccc2)[C@H](O)CNCc2cncc(C(C)(C)F)c2)c1` [Compound 281, N1-((4-(fluoromethyl)thiazol-2-yl)methyl)-N3-((2S,3R)-4-((5-(2-fluoropropan-2-yl)pyridin-3-yl)methylamino)-3-hydroxy-1-phenylbutan-2-yl)-N1-methylisophthalamide], for which the Ki is under 300 nM.
Consider `COc1ccc(C(F)(F)F)cc1CNC[C@@H](O)[C@H](Cc1ccccc1)NC(=O)c1cccc(C(=O)N(C)Cc2nc(C)cs2)c1` [Compound 282, N1-((2S,3R)-3-hydroxy-4-(2-methoxy-5-(trifluoromethyl)benzylamino)-1-phenylbutan-2-yl)-N3-methyl-N3-((4-methylthiazol-2-yl)methyl)isophthalamide], for which the Ki was over 501 nM.
For `CNc1cc(CNC[C@@H](O)[C@H](Cc2ccccc2)NC(=O)c2cccc(C(=O)N(C)Cc3nc(C)cs3)c2)cc(C(F)(F)F)c1` [Compound 283, N1-((2S,3R)-3-hydroxy-4-(3-(methylamino)-5-(trifluoromethyl)benzylamino)-1-phenylbutan-2-yl)-N3-methyl-N3-((4-methylthiazol-2-yl)methyl)isophthalamide], the Ki was under 300 nM.
In the case of `COC(OC)C(C)c1cncc(CNC[C@@H](O)[C@H](Cc2ccccc2)NC(=O)c2cccc(C(=O)N(C)Cc3nc(C)cs3)c2)c1` (stereo partly drawn) [Compound 284, N1-((2S,3R)-4-((5-(1,1-dimethoxypropan-2-yl)pyridin-3-yl)methylamino)-3-hydroxy-1-phenylbutan-2-yl)-N3-methyl-N3-((4-methylthiazol-2-yl)methyl)isophthalamide], the Ki was under 300 nM.
In the case of `CC(C)c1cncc(CNC[C@@H](O)[C@H](Cc2ccccc2)NC(=O)c2cccc(C(=O)N(C)Cc3nc(C(F)F)cs3)c2)c1` [Compound 285, N1-((4-(difluoromethyl)thiazol-2-yl)methyl)-N3-((2S,3R)-3-hydroxy-4-((5-isopropylpyridin-3-yl)methylamino)-1-phenylbutan-2-yl)-N1-methylisophthalamide] it was under 300 nM; in that of `CN(Cc1nc(C(F)F)cs1)C(=O)c1cccc(C(=O)N[C@@H](Cc2ccccc2)[C@H](O)CNCc2cncc(C(C)(C)F)c2)c1` [Compound 286, N1-((4-(difluoromethyl)thiazol-2-yl)methyl)-N3-((2S,3R)-4-((5-(2-fluoropropan-2-yl)pyridin-3-yl)methylamino)-3-hydroxy-1-phenylbutan-2-yl)-N1-methylisophthalamide], under 300 nM; in that of `Cc1csc(CN(C)C(=O)c2cccc(C(=O)N[C@@H](Cc3ccccc3)[C@H](O)CNCc3cnn(C)c3)c2)n1` [Compound 287, N1-((2S,3R)-3-hydroxy-4-((1-methyl-1H-pyrazol-4-yl)methylamino)-1-phenylbutan-2-yl)-N3-methyl-N3-((4-methylthiazol-2-yl)methyl)isophthalamide], under 300 nM.
